From PubChem BioAssay (NCI)
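Tested at 5 concentrations; 48 h exposure; 96-well plates; endpoints linearly interpolated, else capped at highest concentration. Definition used: TGI = concentration required for complete inhibition of growth.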

Assays:
Experiment in all cases: DTP human tumour cell line panel, 48 h
[1] = tested on: RPMI-8226 leukemia
[2] = tested on: RXF 393 renal
[3] = tested on: HL-60(TB) leukemia
[4] = tested on: SK-MEL-5 melanoma
[5] = tested on: NCI-H23 lung
[6] = tested on: EKVX NSCLC
[7] = tested on: OVCAR-5 ovarian
[8] = tested on: TK-10 renal
[9] = tested on: HCT-15 colon
[10] = tested on: A549 NSCLC
[11] = tested on: SNB-75 CNS
[12] = tested on: LOX IMVI melanoma
[13] = tested on: U251 CNS
[14] = tested on: HT29 colon
[15] = tested on: KM12 colon
[16] = tested on: SK-MEL-2 melanoma
[17] = tested on: HOP-62 NSCLC
[18] = tested on: CAKI-1 renal
[19] = tested on: SW-620 colon
[20] = tested on: SK-MEL-28 melanoma

O=C(CCCn1cnc([N+](=O)[O-])n1)NCCn1ccnc1[N+](=O)[O-]
TGI [1]: > 100 µM
TGI [2]: > 100 µM
TGI [3]: > 100 µM
TGI [4]: > 100 µM
TGI [5]: > 100 µM
TGI [6]: > 100 µM
TGI [7]: > 100 µM
TGI [8]: > 100 µM
TGI [9]: > 100 µM
TGI [10]: > 100 µM
TGI [11]: > 100 µM
TGI [12]: > 100 µM
TGI [13]: > 100 µM
TGI [14]: > 100 µM
TGI [15]: > 100 µM
TGI [16]: > 100 µM
TGI [17]: > 100 µM
TGI [18]: > 100 µM
TGI [19]: > 100 µM
TGI [20]: > 100 µM

O=C(Nc1ccccc1F)c1c(O)nc2sccn2c1=O
TGI [1]: > 10 µM
TGI [2]: > 10 µM
TGI [3]: > 10 µM
TGI [4]: > 10 µM
TGI [5]: > 10 µM
TGI [6]: > 10 µM
TGI [7]: > 10 µM
TGI [8]: > 10 µM
TGI [9]: > 10 µM
TGI [10]: > 10 µM
TGI [11]: > 10 µM
TGI [12]: > 10 µM
TGI [13]: > 10 µM
TGI [14]: > 10 µM
TGI [15]: > 10 µM
TGI [16]: > 10 µM
TGI [17]: > 10 µM
TGI [18]: > 10 µM
TGI [19]: > 10 µM
TGI [20]: > 10 µM

N/N=C(\C(=O)Nc1c(Cl)cc([N+](=O)[O-])cc1Cl)C(c1cnc2ccc([N+](=O)[O-])cc2n1)[N+](=O)[O-] (stereo not given)
TGI [1]: > 100 µM
TGI [2]: > 100 µM
TGI [3]: > 100 µM
TGI [4]: > 100 µM
TGI [5]: > 100 µM
TGI [6]: > 100 µM
TGI [7]: > 100 µM
TGI [8]: > 100 µM
TGI [9]: > 100 µM
TGI [10]: > 100 µM
TGI [11]: > 100 µM
TGI [12]: > 100 µM
TGI [13]: > 100 µM
TGI [14]: > 100 µM
TGI [15]: > 100 µM
TGI [16]: > 100 µM
TGI [17]: > 100 µM
TGI [18]: > 100 µM
TGI [19]: > 100 µM
TGI [20]: > 100 µM

COc1ccc2[nH]c(C(=O)N3CC(CCl)c4ccc(N)cc43)cc2c1 (stereo not given)
TGI [1]: > 35.4 µM
TGI [2]: 0.251 µM
TGI [3]: 0.631 µM
TGI [4]: 0.195 µM
TGI [5]: 0.501 µM
TGI [6]: 2.78 µM
TGI [7]: > 30.1 µM
TGI [8]: > 100 µM
TGI [9]: > 50.4 µM
TGI [10]: > 86.9 µM
TGI [11]: 0.475 µM
TGI [12]: 0.601 µM
TGI [13]: > 31.6 µM
TGI [14]: 0.508 µM
TGI [15]: 0.406 µM
TGI [16]: 0.396 µM
TGI [17]: > 100 µM
TGI [18]: 0.299 µM
TGI [19]: > 100 µM
TGI [20]: > 31.6 µM

CC(=O)OC(Cc1cc(C=C(C(F)(F)F)C(F)(F)F)cc(C)n1)(C(F)(F)F)C(F)(F)F
TGI [1]: 4.56 µM
TGI [2]: 2.4 µM
TGI [3]: 1.18 µM
TGI [4]: 2.82 µM
TGI [5]: 3.32 µM
TGI [6]: 5.87 µM
TGI [7]: 4.58 µM
TGI [8]: 6.7 µM
TGI [9]: > 100 µM
TGI [10]: 12.4 µM
TGI [11]: 7.02 µM
TGI [12]: 3.49 µM
TGI [13]: 4.74 µM
TGI [14]: 5.32 µM
TGI [15]: 2.98 µM
TGI [16]: > 100 µM
TGI [17]: 3.42 µM
TGI [18]: 3.45 µM
TGI [19]: 5.67 µM
TGI [20]: 2.85 µM

COC(=O)/C=C\Sc1ccn(/C=C\C(=O)OC)c(=S)n1
TGI [1]: > 100 µM
TGI [2]: 23.3 µM
TGI [3]: > 100 µM
TGI [4]: 80.6 µM
TGI [5]: 64.3 µM
TGI [6]: 68.2 µM
TGI [7]: > 100 µM
TGI [8]: 51.1 µM
TGI [9]: 42.6 µM
TGI [10]: 50.7 µM
TGI [11]: 43.1 µM
TGI [12]: 9.35 µM
TGI [13]: 39.9 µM
TGI [14]: 52.9 µM
TGI [15]: 42.8 µM
TGI [16]: 46.9 µM
TGI [17]: 32.4 µM
TGI [18]: 31.9 µM
TGI [19]: 56.5 µM
TGI [20]: > 100 µM
